Results: patent US9725482B2, “Pentacyclic triterpenoid compound with modified structure and preparation method and use thereof” (Suzhou Botany Biomedicals Co., Ltd, priority 2013, dated 2017)

Legend:
HaCat keratinocytes = assay: In vitro inhibition of growth of skin keratinocyte (CCK-8); format: cell-based; settings: 24 hours; for concentration that completely inhibits the growth of the skin keratinocyte: HaCat cells, CCK-8
Experimental: HaCat keratinocytes (purchased from ATCC) in a logarithmic growth phase were inoculated in a 96-well plate, with 2×10^4 cells for each well. The compound of formula (II) and AKBA were added respectively in a concentration gradient. The total volume was […]. DMSO was added in the control group to a final concentration of 0.25%. […] culture medium was added into the blank control well. Each group had three parallel experiments. After cultured in a cell incubator for 24 hours, […] CCK-8 solution was added into each well. Then the plate was placed in the incubator for incubation at 37° C. and 5% CO2 for 4 hours. OD value was measured at 450 nm by a microplate reader. The inhibition rate was calculated by the following equation: Inhibition Rate=[1−(OD of the test group/OD of the control group)]×100%.

mouse psoriasis model [1] = assay: Treatment of mice psoriasis induced by imiquimod with gel formulation; format: in vivo, Balb/c mice; settings: 0.5% (w/w) gel, day 8 to day 14, topical
Experimental: (§1) Thirty age- and sex-matched Balb/c mice, 10 in the control group using a blank gel, 10 in the treatment group using AKBA gel and 10 in the treatment group using CKBA gel, were coated on their backs by imiquimod (62.5 mg/day for each mouse) for 7 days to establish mouse psoriasis model. At day 8 to day 14, the blank gel (Control), AKBA gel (0.5% (w/w)) and CKBA gel (0.5% (w/w)) were administered to the mice for treatment, respectively. Imiquimod was administered every two days to the back of the mice to maintain the skin inflammation. At day 15 pictures were took for the skin lesions of the psoriasis mice. Then the mice were sacrificed by cervical vertebra luxation and the skin from the skin lesion was cut and fixed by 4% paraformaldehyde to prepare HE pathological sections.
as §1, with “(0.2%” for “(0.5%”

5-LOX = target: T1, 5-LOX (Homo sapiens, UniProt P09917); settings: Sailer et al., British J Pharmacology, 1996; cited from earlier work
T1 sequence (P09917 1-674): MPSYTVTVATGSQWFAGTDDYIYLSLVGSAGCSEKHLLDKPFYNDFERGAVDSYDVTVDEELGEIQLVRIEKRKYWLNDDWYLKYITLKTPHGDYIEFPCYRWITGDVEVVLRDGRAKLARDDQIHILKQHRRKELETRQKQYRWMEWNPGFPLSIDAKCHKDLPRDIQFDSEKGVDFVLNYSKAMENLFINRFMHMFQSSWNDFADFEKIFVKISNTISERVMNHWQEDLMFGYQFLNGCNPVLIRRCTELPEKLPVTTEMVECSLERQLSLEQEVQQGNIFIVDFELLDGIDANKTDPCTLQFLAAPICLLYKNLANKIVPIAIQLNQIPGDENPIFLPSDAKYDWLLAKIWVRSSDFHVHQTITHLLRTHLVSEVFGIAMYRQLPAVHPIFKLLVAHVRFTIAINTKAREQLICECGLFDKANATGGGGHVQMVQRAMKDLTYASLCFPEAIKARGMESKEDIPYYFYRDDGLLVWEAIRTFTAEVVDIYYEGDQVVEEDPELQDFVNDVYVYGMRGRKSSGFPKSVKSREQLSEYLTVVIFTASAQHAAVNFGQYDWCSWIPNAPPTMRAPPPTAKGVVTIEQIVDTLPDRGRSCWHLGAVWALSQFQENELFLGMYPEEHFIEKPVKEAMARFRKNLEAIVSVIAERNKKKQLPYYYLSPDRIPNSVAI

TH1 cells = assay: Inhibition of in vitro differentiation of TH1 cells from naive T cells (flow cytometry); format: cell-based, C57BL/6J mice; settings: 2 μm, 4 days, IFN-γ staining
Experimental: (§2) C57BL/6J mice of 6-8 week old were sacrificed by cervical vertebra luxation. The spleen was taken and ground. The cells were sieved to prepare a single-cell suspension. After dyeing on their surfaces by CD4-APC, CD25 PerCP-Cy 5.5 and CD62L-FITC, the cells were sorted by BD FACSAria III flow cytometry. The naïve T cells, i.e., CD4^+CD25^−CD62L^hi+ T cells, were used for induced differentiation of TH1, TH17 and Treg. A gradient of concentration of CKBA was added for incubation. Cells were collected after 4 days and then further cultured in incubator at 37° C. and 5% CO2 for 4-6 hours in 1640 complete culture medium supplemented with 750 ng/ml ionomycin and 50 ng/ml phorbol myristate acetate (PMA) and GolgiPlug. After suspension with PBS, the surface of the cell was stained by CD4-APC. After staining at 4° C. for 30 minutes, the cells were re-suspended once and then broke for 20 minutes at 4[…]. The cells were washed again by lotion and then stained by IFN-γ, IL-17A and FoxP3.

TH17 cells = assay: Inhibition of in vitro differentiation of TH17 cells from naive T cells (flow cytometry); format: cell-based, C57BL/6J mice; settings: 2 μm, 4 days, IL-17A staining
Experimental: as §2

Treg = assay: In vitro differentiation of Treg from naive T cells (flow cytometry); format: cell-based, C57BL/6J mice; settings: 2 μm, 4 days, FoxP3 staining
Experimental: as §2

mouse psoriasis model [2] = assay: Treatment of mice psoriasis induced by imiquimod with gel formulation; format: in vivo, Balb/c mice; settings: 0.2% (w/w) gel, day 8 to day 14, topical

| Structure (SMILES) | concentration that completely inhibits the growth of the skin keratinocyte (HaCat keratinocytes) [µM] | mice psoriasis phenotype (mouse psoriasis model [1]) | number of the inflammatory cells in dermis (mouse psoriasis model [1]) | skin thickness (mouse psoriasis model [1]) | 5-LOX inhibitory activity among boswellic acids (5-LOX) | inhibiting division and proliferation of HaCat cells as compared to AKBA (HaCat keratinocytes; concentration gradient) | inhibition of in vitro differentiation of TH1 (TH1 cells) | inhibition of in vitro differentiation of TH17 (TH17 cells) | inhibition on differentiation of Treg (Treg) | treatment of mice psoriasis as compared to AKBA (mouse psoriasis model [1]) | mice psoriasis (mouse psoriasis model [2]) | number of the inflammatory cells in dermis (mouse psoriasis model [2]) | skin thickness (mouse psoriasis model [2]) |
| --- | --- | --- | --- | --- | --- | --- | --- | --- | --- | --- | --- | --- | --- |
| CC(=O)O[C@@H]1CC[C@@]2(C)C(CC[C@]3(C)C2C(=O)C=C2C4[C@@H](C)[C@H](C)CC[C@]4(C)CC[C@]23C)[C@@]1(C)C(=O)O (stereo partly drawn) [AKBA, Acetyl-11-keto-β-boswellic acid, reference compound] | 100 | effectively relieve | significantly reduce | significantly reduce | the most obvious 5-LOX inhibitory activity | – | – | – | – | – | – | – | – |
| C[C@H]1[C@H](C)CC[C@]2(C)CC[C@]3(C)C(=CC(=O)[C@@H]4[C@@]5(C)CC[C@@H](OC(=O)C6CCCCC6)[C@](C)(C(=O)O)[C@@H]5CC[C@]43C)[C@H]12 [CKBA, 3-o-α-cyclohexanoyl-11-keto-β-boswellic acid] | 20 | effectively relieve | significantly reduce | significantly reduce | – | more effective | very effectively inhibit | very effectively inhibit | no inhibition | more effectively treat | effectively cure | significantly reduce | significantly reduce |
